In patent US5140014A (Abbott Laboratories, priority 1989, dated 1992):
Values after ≈ are worked out from the molar mass of the structure shown. Where two headings read alike, the source gives them in different places.

How the values were obtained:
Experiment in all cases: in vitro antibacterial activity, agar dilution method (MIC)
Format in all cases: cell-based
Enterococcus Faecium = details: Enterococcus faecium, ATCC8043, strain ATCC 8043; BHI agar, 20-24 hours; read-out: MIC
Protocol: (§1) The test medium was Brain Heart Infusion (BHI) agar. The antibacterial agent was dissolved at a concentration of 2,000 ug/mL. Test plates were then prepared, usually 12 two-fold dilutions. After adding the sample to the plates, 10 mL of cooled BHI agar medium was added to each plate. The organisms were grown overnight in BHI broth (Difco) in a 35°-37° C. incubator.
(§2) On the day of testing, the bacterial suspensions were diluted 1:100 in sterile distilled water, except for a few slow-growing organisms (usually Micrococcus and Streptococcus) which were diluted 1:10. The plate was then inoculated with approximately 10^4 organisms. This was incubated in a 35°-37° C. incubator for 20-24 hours. Thereafter, the plates were read to determine the minimum inhibitory concentration (MIC) defined as the lowest concentration of drug yielding no growth on the plate, a slight haze, or sparsely isolated colonies on the inoculum spot as compared to the growth control.

Streptococcus Bovis = details: Streptococcus equinus
Protocol: as §1, §2

Streptococcus Agalactiae = details: Streptococcus agalactiae, strain CMX 508; BHI agar, 20-24 hours; read-out: MIC
Protocol: as §1, §2

Streptococcus Pyogenes = details: Streptococcus pyogenes, BHI agar, 20-24 hours, read-out: MIC
Protocol: as §1, §2

Staphylococcus Aureus = details: Staphylococcus aureus, BHI agar, 20-24 hours, read-out: MIC
Protocol: as §1, §2

Micrococcus Luteus = details: Micrococcus luteus, BHI agar, 20-24 hours, read-out: MIC
Protocol: as §1, §2

Haemophilus Influenzae = details: Haemophilus influenzae, BHI agar, 20-24 hours
Protocol: as §1, §2

Klebsiella Pneumoniae = details: Klebsiella pneumoniae, ATCC8045, strain ATCC 8045; BHI agar, 20-24 hours; read-out: MIC
Protocol: as §1, §2

Enterobacter Aerogenes = details: Klebsiella aerogenes, ATCC13048, strain ATCC 13048; BHI agar, 20-24 hours; read-out: MIC
Protocol: as §1, §2

[1] = system: Staphylococcus Epidermidis; details: Staphylococcus epidermidis, strain 3519; BHI agar, 20-24 hours; read-out: MIC
Protocol: as §1, §2

Pseudomonas Aeruginosa = details: Pseudomonas aeruginosa, BHI agar, 20-24 hours, read-out: MIC
Protocol: as §1, §2

Acinetobacter Sp = details: Acinetobacter, strain CMX 669; BHI agar, 20-24 hours; read-out: MIC
Protocol: as §1, §2

Providencia Stuartii = details: Providencia stuartii; strain CMX 640; BHI agar, 20-24 hours; read-out: MIC
Protocol: as §1, §2

Pseudomonas Cepacia = details: Burkholderia cepacia; strain 296I; BHI agar, 20-24 hours; read-out: MIC
Protocol: as §1, with “Compounds 1 to 8 were evaluated for antibacterial activity by the agar dilution method to determine the degree of in vitro susceptibility of aerobic microorganisms to antimicrobial agents. The test” for “The test”
as §2

Escherichia Coli = details: Escherichia coli, BHI agar, 20-24 hours, read-out: MIC
Protocol: as §1, with “Compounds 1 to 8 were evaluated for antibacterial activity by the agar dilution method to determine the degree of in vitro susceptibility of aerobic microorganisms to antimicrobial agents. The test” for “The test”
as §2

Structure (SMILES): CCC1OC(=O)CC(O)C(C)C(OC2OC(C)C(O)C(N(C)C)C2O)C(CC=O)CC(C)C(N(C)C)C=CC(C)=CC1COC(C)=O (stereo not shown) [Example 4, [9R]-23-O-Acetyl-9-deoxo-9-N,N-dimethylamino-5-O-mycaminosyl-tylonide]
- MIC (Enterococcus Faecium): 0.39 µg/mL (≈ 0.583 µM)
- MIC (Streptococcus Bovis): ≤ 0.02 µg/mL
- MIC (Streptococcus Agalactiae): 0.1 µg/mL (≈ 0.15 µM)
- MIC (Streptococcus Pyogenes; strain 930 CONST): > 100 µg/mL
- MIC (Streptococcus Pyogenes; strain 2548 INDUC): 0.78 µg/mL (≈ 1.17 µM)
- MIC (Streptococcus Pyogenes; strain EES61): 0.1 µg/mL (≈ 0.15 µM)
- MIC (Staphylococcus Aureus; ATCC6538P, strain ATCC 6538P): 0.78 µg/mL (≈ 1.17 µM)
- MIC (Staphylococcus Aureus; NCTC10649, strain NCTC 10649): 0.78 µg/mL (≈ 1.17 µM)
- MIC (Staphylococcus Aureus; strain 45): 0.78 µg/mL (≈ 1.17 µM)
- MIC (Staphylococcus Aureus; strain 45 RAR2): 1.56 µg/mL (≈ 2.33 µM)
- MIC (Staphylococcus Aureus; strain 642A): 1.56 µg/mL (≈ 2.33 µM)
- MIC (Staphylococcus Aureus; strain A5177): 0.78 µg/mL (≈ 1.17 µM)
- MIC (Staphylococcus Aureus; strain CMX 553): 1.56 µg/mL (≈ 2.33 µM)
- MIC (Micrococcus Luteus; ATCC4698, strain ATCC 4698): 0.39 µg/mL (≈ 0.583 µM)
- MIC (Micrococcus Luteus; ATCC9341, strain ATCC 9341): 0.2 µg/mL (≈ 0.299 µM)
- MIC (Haemophilus Influenzae; ATCC9795, strain ATCC 9795, read-out: MIC): 1 µg/mL (≈ 1.5 µM)
- MIC (Haemophilus Influenzae; ATCC10211, strain ATCC 10211): 2 µg/mL (≈ 2.99 µM)
- MIC (Haemophilus Influenzae; ATCC19418, strain ATCC 19418): 2 µg/mL (≈ 2.99 µM)
- MIC (Haemophilus Influenzae; ATCC43095, strain ATCC 43095): 2 µg/mL (≈ 2.99 µM)
- MIC (Haemophilus Influenzae; strain 503B): 2 µg/mL (≈ 2.99 µM)
- MIC (Haemophilus Influenzae; strain 504, read-out: MIC): 0.25 µg/mL (≈ 0.374 µM)
- MIC (Haemophilus Influenzae; strain 519A, read-out: MIC): 1 µg/mL (≈ 1.5 µM)
- MIC (Haemophilus Influenzae; strain 566A, read-out: MIC): 1 µg/mL (≈ 1.5 µM)
- MIC (Haemophilus Influenzae; strain 588A): 2 µg/mL (≈ 2.99 µM)
- MIC (Haemophilus Influenzae; strain 747C): 2 µg/mL (≈ 2.99 µM)
- MIC (Haemophilus Influenzae; strain 751, read-out: MIC): 8 µg/mL (≈ 12 µM)
- MIC (Haemophilus Influenzae; strain 1177, read-out: MIC): 0.25 µg/mL (≈ 0.374 µM)
- MIC (Haemophilus Influenzae; strain 1435, read-out: MIC): 1 µg/mL (≈ 1.5 µM)
- MIC (Haemophilus Influenzae; strain DILL AMP R): 2 µg/mL (≈ 2.99 µM)
- MIC (Haemophilus Influenzae; strain SOL AMP R): 2 µg/mL (≈ 2.99 µM)
- MIC (Haemophilus Influenzae; strain SPK AMP R): 2 µg/mL (≈ 2.99 µM)
- MIC (Klebsiella Pneumoniae): 50 µg/mL (≈ 74.8 µM)
- MIC (Enterobacter Aerogenes): 100 µg/mL (≈ 150 µM)
- MIC [1]: 0.78 µg/mL (≈ 1.17 µM)
- MIC (Pseudomonas Aeruginosa; strain A5007): 100 µg/mL (≈ 150 µM)
- MIC (Pseudomonas Aeruginosa; strain BMH10): 100 µg/mL (≈ 150 µM)
- MIC (Pseudomonas Aeruginosa; strain K799/61): 3.1 µg/mL (≈ 4.63 µM)
- MIC (Pseudomonas Aeruginosa; strain K799/WT): 100 µg/mL (≈ 150 µM)
- MIC (Acinetobacter Sp): 6.2 µg/mL (≈ 9.27 µM)
- MIC (Providencia Stuartii): > 100 µg/mL
- MIC (Pseudomonas Cepacia): > 100 µg/mL
- MIC (Escherichia Coli; strain DC-2): 25 µg/mL (≈ 37.4 µM)
- MIC (Escherichia Coli; strain H560): 12.5 µg/mL (≈ 18.7 µM)
- MIC (Escherichia Coli; strain JUHL): 50 µg/mL (≈ 74.8 µM)
- MIC (Escherichia Coli; strain KNK 437): 50 µg/mL (≈ 74.8 µM)
- MIC (Escherichia Coli; strain SS): 0.78 µg/mL (≈ 1.17 µM)
